According to US8372441B2, “Materials and methods for preparation of alkaline earth ferrates from alkaline earth oxides, peroxides, and nitrates” (Biolife, LLC, priority 2007, dated 2013):

Experiments:
mammalian blood = conditions: dry powder on blood; cited from earlier work
[1] = cited from earlier work
[2] = solubility in water or saline solution; format: physicochemical; conditions: for strontium ferrate water or saline solution

Compound	hemostasis (background) (mammalian blood)	solubility in water (background) [1]	solubility in water [2]
OO.[Zn] [Zinc peroxide (ZnO2), Zinc peroxide]	some hemostatic activity	–	–
[Ba+2].[O]=[Fe](=[O])([O-])[O-] [barium ferrate (BaFeO4), barium ferrate]	–	practically insoluble	–
[Fe+4].[O-2].[O-2].[O-2].[O-2].[Sr+2].[Sr+2] [Strontium ferrate, strontium ferrate]	–	–	very insoluble
[O-2].[Sr+2] [Strontium oxide]	some hemostasis	–	–
[O]=[Fe][O][Fe]=[O] [Ferric oxide]	–	–	insoluble
strontium ferrate [strontium ferrate (SrFeO4)]	–	practically insoluble	–
